From patent US20250324971A1, “HERBICIDAL DERIVATIVES” (SYNGENTA CROP PROTECTION AG, priority 2022, published 2025)

Key:
Type in all cases: in vivo
Setaria faberi (SETFA) [1] = test: Pre-Emergence Test (herbicidal, glasshouse pots); details: evaluated after 13 days, five-point scale
[2] = test system: Ipomoea hederacea (IPOHE); test: Pre-Emergence Test (herbicidal, glasshouse pots); details: evaluated after 13 days, five-point scale
[3] = test system: Amaranthus palmeri (AMAPA); test: Pre-Emergence Test (herbicidal, glasshouse pots); details: evaluated after 13 days, five-point scale
[4] = test system: Echinochloa crus-galli (ECHCG); test: Pre-Emergence Test (herbicidal, glasshouse pots); details: evaluated after 13 days, five-point scale
Setaria faberi (SETFA) [5] = test: Post-Emergence Test (herbicidal, glasshouse pots); details: evaluated after 13 days
Summary of the method: (§1)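 Percentage plant damage rated 13 days after spraying, binned 1 (0-20%) to 5 (81-100%). Application, in g/ha, used acetone/water (50:50) plus 0.5% Tween 20; pots kept under controlled glasshouse conditions (24/16 °C day/night, 14 h light, 65% humidity).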

[6] = test system: Echinochloa crus-galli (ECHCG); test: Post-Emergence Test (herbicidal, glasshouse pots); details: evaluated after 13 days
Summary of the method: as §1

Zea mays (ZEAMX) [7] = test: Post-Emergence Test (herbicidal, glasshouse pots); details: evaluated after 13 days
Summary of the method: as §1

[8] = test system: Ipomoea hederacea (IPOHE); test: Post-Emergence Test (herbicidal, glasshouse pots); details: evaluated after 13 days
Summary of the method: as §1

[9] = test system: Amaranthus palmeri (AMAPA); test: Post-Emergence Test (herbicidal, glasshouse pots); details: evaluated after 13 days
Summary of the method: as §1

[10] = test system: Amaranthus retoflexus (AMARE); test: Post-Emergence Test (herbicidal, glasshouse pots); details: evaluated after 13 days
Summary of the method: as §1

[11] = test system: Amaranthus retoflexus (AMARE); test: Pre-Emergence Test (herbicidal, glasshouse pots); details: evaluated after 13 days, five-point scale
Zea mays (ZEAMX) [12] = test: Pre-Emergence Test (herbicidal, glasshouse pots); details: evaluated after 13 days, five-point scale

Row | Compound | percentage damage caused to the plant, SETFA (Setaria faberi (SETFA) [1]; rate 250 g/ha) | percentage damage caused to the plant, IPHOE ([2]; rate 250 g/ha) | percentage damage caused to the plant, AMAPA ([3]; rate 250 g/ha) | percentage damage caused to the plant, ECHCG ([4]; rate 250 g/ha) | Post-Emergence Test SETFA percentage damage (five-point scale) (Setaria faberi (SETFA) [5]; rate 250 g/ha) | Post-Emergence Test ECHCG percentage damage (five-point scale) ([6]; rate 250 g/ha) | Post-Emergence Test ZEAMX percentage damage (five-point scale) (Zea mays (ZEAMX) [7]; rate 250 g/ha) | Post-Emergence Test IPHOE percentage damage (five-point scale) ([8]; rate 250 g/ha) | Post-Emergence Test AMAPA percentage damage (five-point scale) ([9]; rate 250 g/ha) | Post-Emergence Test AMARE percentage damage (five-point scale) ([10]; rate 250 g/ha) | percentage damage caused to the plant, AMARE ([11]; rate 250 g/ha) | percentage damage caused to the plant, ZEAMX (Zea mays (ZEAMX) [12]; rate 250 g/ha) | further results
1 | CCn1c(Oc2ccc3nccnc3c2)cc(=O)c(C(=O)O)c1-c1ccc(Cl)c(Cl)c1 [Compound 42, 2-(3,4-dichlorophenyl)-1-ethyl-4-oxo-6-quinoxalin-6-yloxy-pyridine-3-carboxylic acid] | 1 (1=0-20%) | 2 (2=21-40%) | 2 (2=21-40%) | 1 (1=0-20%) | 1 (1=0-20%) | 1 (1=0-20%) | 1 (1=0-20%) | 3 (3=41-60%) | 1 (1=0-20%) | 1 (1=0-20%) | 2 (2=21-40%) | 0 | –
2 | C/C=C(\C)COc1cc(=O)c(C(=O)O)c(-c2ccc(Cl)c(Cl)c2)n1CC [Compound 63, 2-(3,4-dichlorophenyl)-1-ethyl-6-[(E)-2-methylbut-2-enoxy]-4-oxo-pyridine-3-carboxylic acid] | 0 | 2 (2=21-40%) | 0 | 0 | 0 | 1 (1=0-20%) | 1 (1=0-20%) | 2 (2=21-40%) | 1 (1=0-20%) | 2 (2=21-40%) | 1 (1=0-20%) | 0 | –
3 | CCn1c(Oc2ccccc2F)cc(=O)c(C(=O)O)c1-c1ccc(Cl)c(Cl)c1 [Compound 3, 2-(3,4-dichlorophenyl)-1-ethyl-6-(2-fluorophenoxy)-4-oxo-pyridine-3-carboxylic acid] | – | – | – | – | – | – | – | – | – | – | – | – | percentage damage caused to the plant, SETFA (Setaria faberi (SETFA) [1]; rate 1000 g/ha): 5 (5=81-100%); percentage damage caused to the plant, IPHOE ([2]; rate 1000 g/ha): 4 (4=61-80%); percentage damage caused to the plant, AMAPA ([3]; rate 1000 g/ha): 1 (1=0-20%); percentage damage caused to the plant, ECHCG ([4]; rate 1000 g/ha): 4 (4=61-80%); Post-Emergence Test SETFA percentage damage (five-point scale) (Setaria faberi (SETFA) [5]; rate 1000 g/ha): 4 (4=61-80%); Post-Emergence Test ECHCG percentage damage (five-point scale) ([6]; rate 1000 g/ha): 4 (4=61-80%); Post-Emergence Test ZEAMX percentage damage (five-point scale) (Zea mays (ZEAMX) [7]; rate 1000 g/ha): 2 (2=21-40%); Post-Emergence Test IPHOE percentage damage (five-point scale) ([8]; rate 1000 g/ha): 3 (3=41-60%); Post-Emergence Test AMAPA percentage damage (five-point scale) ([9]; rate 1000 g/ha): 2 (2=21-40%); Post-Emergence Test AMARE percentage damage (five-point scale) ([10]; rate 1000 g/ha): 3 (3=41-60%); percentage damage caused to the plant, AMARE ([11]; rate 1000 g/ha): 2 (2=21-40%); percentage damage caused to the plant, ZEAMX (Zea mays (ZEAMX) [12]; rate 1000 g/ha): 2 (2=21-40%)
4 | CCn1c(Oc2ccc(C(F)(F)F)cc2)cc(=O)c(C(=O)O)c1-c1ccc(Cl)c(Cl)c1 [Compound 27, 2-(3,4-dichlorophenyl)-1-ethyl-4-oxo-6-[4-(trifluoromethyl)phenoxy]pyridine-3-carboxylic acid] | 4 (4=61-80%) | 0 | 1 (1=0-20%) | 1 (1=0-20%) | 5 (5=81-100%) | 4 (4=61-80%) | 2 (2=21-40%) | 4 (4=61-80%) | 4 (4=61-80%) | 4 (4=61-80%) | 1 (1=0-20%) | 0 | –
5 | CCn1c(Oc2ccn(C3CC3)n2)cc(=O)c(C(=O)O)c1-c1ccc(Cl)c(Cl)c1 [Compound 58, 6-(1-cyclopropylpyrazol-3-yl)oxy-2-(3,4-dichlorophenyl)-1-ethyl-4-oxo-pyridine-3-carboxylic acid] | 5 (5=81-100%) | 5 (5=81-100%) | 3 (3=41-60%) | 5 (5=81-100%) | 3 (3=41-60%) | 3 (3=41-60%) | 4 (4=61-80%) | 4 (4=61-80%) | 3 (3=41-60%) | 4 (4=61-80%) | 4 (4=61-80%) | 5 (5=81-100%) | –
6 | CCn1c(Oc2cc(C(F)F)n(C)n2)cc(=O)c(C(=O)O)c1-c1ccc(Cl)c(Cl)c1 [Compound 56, 2-(3,4-dichlorophenyl)-6-[5-(difluoromethyl)-1-methyl-pyrazol-3-yl]oxy-1-ethyl-4-oxo-pyridine-3-carboxylic acid] | – | – | – | – | – | – | – | – | – | – | – | – | percentage damage caused to the plant, SETFA (Setaria faberi (SETFA) [1]; rate 62.5 g/ha): 1 (1=0-20%); percentage damage caused to the plant, IPHOE ([2]; rate 62.5 g/ha): 0; percentage damage caused to the plant, AMAPA ([3]; rate 62.5 g/ha): 0; percentage damage caused to the plant, ECHCG ([4]; rate 62.5 g/ha): 0; Post-Emergence Test SETFA percentage damage (five-point scale) (Setaria faberi (SETFA) [5]; rate 62.5 g/ha): 3 (3=41-60%); Post-Emergence Test ECHCG percentage damage (five-point scale) ([6]; rate 62.5 g/ha): 2 (2=21-40%); Post-Emergence Test ZEAMX percentage damage (five-point scale) (Zea mays (ZEAMX) [7]; rate 62.5 g/ha): 0; Post-Emergence Test IPHOE percentage damage (five-point scale) ([8]; rate 62.5 g/ha): 3 (3=41-60%); Post-Emergence Test AMAPA percentage damage (five-point scale) ([9]; rate 62.5 g/ha): 3 (3=41-60%); Post-Emergence Test AMARE percentage damage (five-point scale) ([10]; rate 62.5 g/ha): 2 (2=21-40%); percentage damage caused to the plant, AMARE ([11]; rate 62.5 g/ha): 0; percentage damage caused to the plant, ZEAMX (Zea mays (ZEAMX) [12]; rate 62.5 g/ha): 0
7 | CCn1cc(Oc2cc(=O)c(C(=O)O)c(-c3ccc(Cl)c(Cl)c3)n2CC)cn1 [Compound 59, 2-(3,4-dichlorophenyl)-1-ethyl-6-(1-ethylpyrazol-4-yl)oxy-4-oxo-pyridine-3-carboxylic acid] | 5 (5=81-100%) | 4 (4=61-80%) | 1 (1=0-20%) | 4 (4=61-80%) | 3 (3=41-60%) | 3 (3=41-60%) | 4 (4=61-80%) | 4 (4=61-80%) | 3 (3=41-60%) | 4 (4=61-80%) | 2 (2=21-40%) | 3 (3=41-60%) | –
8 | CCn1c(Oc2ccc(C)c(F)c2)cc(=O)c(C(=O)O)c1-c1ccc(Cl)c(Cl)c1 [Compound 41, 2-(3,4-dichlorophenyl)-1-ethyl-6-(3-fluoro-4-methyl-phenoxy)-4-oxo-pyridine-3-carboxylic acid] | 0 | 2 (2=21-40%) | 0 | 0 | 1 (1=0-20%) | 1 (1=0-20%) | 0 | 3 (3=41-60%) | 2 (2=21-40%) | 2 (2=21-40%) | 1 (1=0-20%) | 0 | –
9 | CCn1c(OC2CC2)cc(=O)c(C(=O)O)c1-c1ccc(Cl)c(Cl)c1 [Compound 45, 6-(cyclopropoxy)-2-(3,4-dichlorophenyl)-1-ethyl-4-oxo-pyridine-3-carboxylic acid] | 1 (1=0-20%) | 0 | 1 (1=0-20%) | 0 | 3 (3=41-60%) | 2 (2=21-40%) | 1 (1=0-20%) | 3 (3=41-60%) | 2 (2=21-40%) | 1 (1=0-20%) | 2 (2=21-40%) | 0 | –
10 | CCn1ccc(Oc2cc(=O)c(C(=O)O)c(-c3ccc(Cl)c(Cl)c3)n2CC)n1 [Compound 57, 2-(3,4-dichlorophenyl)-1-ethyl-6-(1-ethylpyrazol-3-yl)oxy-4-oxo-pyridine-3-carboxylic acid] | 5 (5=81-100%) | 4 (4=61-80%) | 3 (3=41-60%) | 4 (4=61-80%) | 4 (4=61-80%) | 4 (4=61-80%) | 4 (4=61-80%) | 4 (4=61-80%) | 4 (4=61-80%) | 4 (4=61-80%) | 4 (4=61-80%) | 5 (5=81-100%) | –
